US9433588B2, “Delivery of submicrometer and nanometer aerosols to the lungs using hygroscopic excipients or dual stream nasal delivery” (Virginia Commonwealth Univeristy, priority 2009, dated 2016)
Like-named read-outs stand apart in the source and are kept apart here. Marks after values point to notes of the source that are not given here.

Assays:
[1] = Hygroscopic properties of drugs and excipients (saturation limits, i coefficients, hygroscopic parameter); type: physicochemical; conditions: for Saturated mass fraction (mfsat): mass fraction that can be dissolved in liquid water at 25° C.; for Predicted van't Hoff factor (i): measured in this study, best fit of Eq. (15) to water activity data; for Saturated mole fraction (χsat): mole fraction that can be dissolved in liquid water at 25° C.
Protocol: It is noted that Eq. (15) has a form similar to Raoult's law and is valid for materials that may (i>1) or may not (i=1) dissociate upon dissolution. Specifically, Raoult's law provides a linear expression to describe activity coefficients at low solute concentrations, as presented by Finlay (2001). […] Furthermore, values of the i coefficients in this study are determined based on best fits to experimental data over a range of concentrations. Therefore, the application of Eq. (15) can be viewed as a physically based expression for fitting the experimental data. Finally, high accuracy is required at dilute concentrations, which have the largest impact on the final size achieved by the hygroscopic aerosol.
Experimental measurements were made in this study to determine the water activity coefficients of AS, CA, and PG. Activity coefficients for NaCl and MN were determined from the studies of Cinkotai (1971) and Ninni (2000), respectively. […] In order to represent the hygroscopic effect of molecular dissociation with a single coefficient, curve fits to the experimental data were based on Eq. (15) for a single component solution. The optimal value of i providing the best fit to the experimental data was calculated using a minimization routine. […] This limit was used to ensure accuracy of the i-values for dilute droplets, which is needed to ensure accurate estimates of final droplet size.
[formula] where m and M represent the mass (kg) and molar mass (kg/kmol) of the solute (s) and water (w). […] Based on Eq. (15), is directly impacts the activity coefficient and ρs influences the mass term in the mole fraction calculation (Eq. 17). […] This effect of initial drug or excipient loading can be taken into account as a function of the initial solute volume fraction (vfs). The resulting growth coefficient (GC1) for a single component droplet is then

[2] = cited from earlier work; for Predicted van't Hoff factor (i): Eq. (15) fit based on Ninni et al. (2000) measurements (MN) or Cinkotai (1971) correlations (NaCl)
[3] = Hygroscopic growth tube, CAG nanoparticle aerosols sized by cascade impactor; type: physicochemical; conditions: Table 2
Protocol: Budesonide nanoparticle aerosols were generated using the Capillary Aerosol Generator (CAG). This technology represents a generic means of producing engineered pharmaceutical nanosized particles suitable for inhalation. The CAG utilizes controlled heating of a liquid formulation passing through a capillary tube to produce nanosized dry particles exiting the capillary nozzle.
Hygroscopic growth of these nanoparticle aerosols was evaluated by passing the aerosol through a growth tube. Briefly, following nanoparticle generation the aerosols were drawn through the 29 cm hygroscopic growth tube at a flow rate of 30 L/min. The tube was held at 37° C. and 99% relative humidity (RH) to simulate expected lung conditions. The growth tube was approximately 29 cm, which is consistent with the distance from the mouth inlet to the main bronchi of an adult. Following passage through the tubular geometry the aerosols were delivered to the 10-stage MOUDI or Andersen Cascade Impactor (ACI; Graseby-Andersen Inc, Smyrna, Ga.) for particle sizing. Both the tubular geometry and the cascade impactor were placed in an environmental chamber (Espec Environmental Cabinet, Hudsonville, Mich.) to maintain constant temperature and humidity conditions. The ACI was employed following hygroscopic growth when it was expected that the aerosols produced would be in the 1-3 μm size range. For these studies, the final aerodynamic particle size distribution of the aerosol exiting the hygroscopic growth tube was determined at 28±2 L/min, and humidified co-flow air (99% RH) was supplied to the impactor. […] The mass of drug on each impaction plate was determined and used to calculate both the initial and final aerodynamic particle size distributions of the drug aerosols. The growth ratios were calculated by comparing the final size with the initial size of the nanoparticle as a measure of hygroscopic size increase.
Hygroscopic growth of these nanoparticle aerosols was evaluated by passing the aerosol through a growth tube as described in Example 1. […]

[4] = In vitro growth system for validation of the numerical model (CAG, growth zone, MOUDI); type: physicochemical
Protocol: Submicrometer drug and drug-hygroscopic excipient particles were formed using a capillary aerosol generator (CAG). The capillary aerosol generation system is described and considered in detail by the previous studies of Hindle et al. (1998) and Longest et al. (2007). In the current study, the formulation was a mixture of 50% water and 50% ethanol by weight to dissolve both hydrophilic and hydrophobic drugs. This solution was heated and pumped through the CAG at a flow rate of 10 mg/s to form the spray aerosol. Single drug and drug-hygroscopic excipient particles were created experimentally for albuterol sulfate (AS), budesonide (BD), and sodium chloride (NaCl). Specifically, single component drug particles were formed using a 0.2% w/v AS solution and a 0.15% w/v BD solution, respectively. Combination drug-hygroscopic excipient particles were generated using a 0.1% AS-0.1% NaCl w/v solution and a 0.1% BD-0.1% NaCl w/v solution, respectively. The spray aerosol was allowed to dry into solid particles by passage through a 52 cm length of dry tubing (FIG. 3). Initial particle size was then assessed by connecting the tubing to a 10 stage MOUDI (MSP Corp, Shoreview, Minn.). To produce growth, the aerosol stream was combined with humidified air at T=25° C. and RH=99% sampled from an environmental cabinet. […] This length was selected to provide a residence time of approximately 0.2 s, which is consistent with the time required for an orally inhaled pharmaceutical aerosol to reach the main bifurcation of the lungs under standard inhalation conditions. Walls of the growth section were pre-wetted to simulate the wet walled conditions of the respiratory tract, which stimulates aerosol growth. The growth tube was not heated and was exposed to 24° C. room temperature air for this initial validation experiment. After exiting the growth tube, the aerosol was passed into the 10 stage MOUDI for size characterization.
In separate experiments, the temperature and humidity of the humidified air and the temperature of the aerosol mixture stream at the inlet to the condensational growth tube were measured. […]
The initial aerodynamic particle size distribution of the aerosol exiting the drying section of tubing was determined using the 10 stage MOUDI operated at 30±2 L/min, which allowed size fractionation between 50 nm and 10 μm. […] The final aerodynamic particle size distribution of the aerosol exiting the condensational growth tube was also determined using the MOUDI operated at 30±2 L/min. […] The mass of drug and excipient on each impaction plate was determined and used to calculate both the initial and final aerodynamic particle size distributions of the drug and combination aerosols. […]

[5] = Generation of submicrometer aerosol with small particle aerosol generator (SPAG) and drying gas; type: physicochemical; conditions: SPAG nebulized and dried; 560 nm: 0.1% solution, 7.5 and 3 L/min; 900 nm: 0.5% solution, 7 and 3 L/min
Protocol: With LFT, a heated air source is not present for aerosol size reduction, as with HFT. However, medical gases used with LFT (oxygen and helium-oxygen) are typically dry. A study was conducted to evaluate if dry medical-grade gas could be used to produce a submicrometer aerosol from a commercially available nebulizer. A small particle aerosol generator (SPAG) was employed, which functions as a jet nebulizer with an additional relatively large and inefficient drying chamber. […] Specifically, albuterol sulfate solutions were nebulized and dried using a series of nebulizer airflow conditions to produce aerosols with initial mean MMADs (and standard deviations) of 150 (5.5) nm, 560 (11.4) nm, and 900 (32.7) nm (FIG. 11). The 560 nm aerosol was generated using a 0.1% albuterol sulfate in water solution with a nebulizer gas flow rate of 7.5 L/min and a drying gas flow rate of 3 L/min. […]
Nano-sized aqueous-based drug aerosols were generated using a small particle aerosol generator (SPAG-6000, ICN Pharmaceuticals, Costa Mesa, Calif.), and were delivered through a nasal model geometry airway in the presence and absence of ECG conditions. Albuterol sulfate solutions were nebulized using a series of nebulizer airflow conditions to produce aerosols with initial mean (SD) measured size of 900 (32.7) nm. […]

Molecule | Hygroscopic parameter isρs/Ms [1] | Saturated mass fraction (mfsat) [1] | Predicted van't Hoff factor (i) [1] | Saturated mole fraction (χsat) [1] | Predicted van't Hoff factor (i) [2] | Predicted van't Hoff factor (i) ([2]; listed as NaCl) | i coefficient, Raoult's law form of the equation ([2]; NaCl data of Cinkotai (1971), through mfs = 0.3) | Initial MMAD ([3]; CAG-generated albuterol nanoparticles before growth tube, n = 3-4) | Final MMAD (99% RH) ([3]; after 29 cm growth tube, 37° C., 99% RH) | Growth ratio ([3]; final size compared with initial size, 29 cm growth tube, 99% RH) | Initial MMAD ([4]; at inlet to growth zone, SD in parentheses, minimum 4 trials) | Initial dgeo ([4]; calculated from MMAD and dry particle density) | Final dgeo ([4]; outlet of 26 cm growth tube, about 0.2 s, 99% RH, assumed equal to the MMAD) | d/do ([4]; ratio of final to initial geometric diameters) | initial mean MMAD (standard deviation) [5]
O=C(O)CC(O)(CC(=O)O)C(=O)O [Citric acid (CA), Citric acid] | 16.5 kmol/m^3 | 0.57 | 1.9^d | 0.11 | – | – | – | – | – | – | – | – | – | – | –
OC[C@@H](O)[C@@H](O)[C@H](O)[C@H](O)CO [Mannitol (MN), Mannitol] | 8.2 kmol/m^3 | 0.15 | – | 0.018 | 1.0^e | – | – | – | – | – | – | – | – | – | –
CC(O)CO (centres unmarked) [Propylene glycol (PG), Propylene glycol] | 13.6 kmol/m^3 | 1.00 | 1.0^d | 1.00 | – | – | – | – | – | – | – | – | – | – | –
[Cl-].[Na+] [Sodium chloride (NaCl), Sodium chloride] | 77.9 kmol/m^3 | 0.265 | – | – | 2.1^f | 2.1 | 1.9 | – | – | – | – | – | – | – | –
Albuterol sulfate [Albuterol sulfate (100%)] | 4.9 kmol/m^3 | 0.28 | 2.1 | 0.012 | – | – | – | 380 nm | 510 nm | 1.35 | 0.38 (0.01)^a μm | 0.33 μm | 0.51 (0.04) μm | 1.55 (0.12) | 900 (32.7) nm
